Data reported in ChEMBL document CHEMBL1221367, “A new series of macrolide derivatives with 4''-O-saccharide substituents” (2010).
Values after ≈ are worked out from the molar mass of the structure shown.

What was measured:
Format in all cases: functional
Staphylococcus aureus [1] = assay: Antibacterial activity against methicillin-susceptible Staphylococcus aureus ATCC 29213 by the broth microdilution method
Staphylococcus aureus [2] = assay: Antibacterial activity against methicillin-resistant Staphylococcus aureus BK2464 by the broth microdilution method
[3] = tested on: Staphylococcus epidermidis; assay: Antibacterial activity against methicillin-resistant Staphylococcus epidermidis MRSE-1 by the broth microdilution method
Streptococcus pneumoniae [4] = assay: Antibacterial activity against erythromycin-resistant Streptococcus pneumoniae ERSP-2 expressing ermB and mef by the broth microdilution method
Streptococcus pyogenes [5] = assay: Antibacterial activity against erythromycin-resistant Streptococcus pyogenes 8902 expressing ermB by the broth microdilution method
Streptococcus pyogenes [6] = assay: Antibacterial activity against Streptococcus pyogenes ERSPy-1 expressing mef by the broth microdilution method
Streptococcus pyogenes [7] = assay: Ratio of compound MIC to clarithromycin MIC for Streptococcus pyogenes ERSPy-1 expressing mef
Streptococcus pyogenes [8] = assay: Ratio of compound MIC to clarithromycin MIC for erythromycin-resistant Streptococcus pyogenes 8902 expressing ermB
Streptococcus pneumoniae [9] = assay: Ratio of compound MIC to clarithromycin MIC for erythromycin-resistant Streptococcus pneumoniae ERSP-2 expressing ermB and mef

Row | SMILES | MIC (Staphylococcus aureus [1]) | MIC (Staphylococcus aureus [2]) | MIC [3] | MIC (Streptococcus pneumoniae [4]) | MIC (Streptococcus pyogenes [5]) | MIC (Streptococcus pyogenes [6]) | Ratio (Streptococcus pyogenes [7]) | Ratio (Streptococcus pyogenes [8]) | Ratio (Streptococcus pneumoniae [9])
1 | CC[C@H]1OC(=O)[C@H](C)[C@@H](O[C@H]2C[C@@](C)(OC)[C@@H](O[C@@H]3O[C@H](CO)[C@@H](O)[C@H](O)[C@H]3O)[C@H](C)O2)[C@H](C)[C@@H](O[C@@H]2O[C@H](C)C[C@H](N(C)C)[C@H]2O)[C@](C)(OC)C[C@@H](C)C(=O)[C@H](C)[C@@H](O)[C@]1(C)O | > 16 µg/mL | > 16 µg/mL | 16 µg/mL (≈ 17.6 µM) | 16 µg/mL (≈ 17.6 µM) | 16 µg/mL (≈ 17.6 µM) | 16 µg/mL (≈ 17.6 µM) | – | – | –
2 | CC[C@H]1OC(=O)[C@H](C)[C@@H](O[C@H]2C[C@@](C)(OC)[C@@H](O[C@@H]3O[C@H](CO)[C@@H](O)[C@H](O)[C@H]3OC(C)=O)[C@H](C)O2)[C@H](C)[C@@H](O[C@@H]2O[C@H](C)C[C@H](N(C)C)[C@H]2O)[C@](C)(OC)C[C@@H](C)C(=O)[C@H](C)[C@@H](O)[C@]1(C)O | > 16 µg/mL | > 16 µg/mL | > 16 µg/mL | 16 µg/mL (≈ 16.8 µM) | > 16 µg/mL | 16 µg/mL (≈ 16.8 µM) | – | – | –
3 | CC[C@H]1OC(=O)[C@H](C)[C@@H](O[C@H]2C[C@@](C)(OC)[C@@H](O[C@@H]3O[C@H](COC(=O)c4ccccc4)[C@@H](OC(=O)c4ccccc4)[C@H](OC(C)=O)[C@H]3OC(C)=O)[C@H](C)O2)[C@H](C)[C@@H](O[C@@H]2O[C@H](C)C[C@H](N(C)C)[C@H]2O)[C@](C)(OC)C[C@@H](C)C(=O)[C@H](C)[C@@H](O)[C@]1(C)O | > 16 µg/mL | > 16 µg/mL | 16 µg/mL (≈ 13.3 µM) | 16 µg/mL (≈ 13.3 µM) | 16 µg/mL (≈ 13.3 µM) | 8 µg/mL (≈ 6.65 µM) | – | – | –
4 | CC[C@H]1OC(=O)[C@H](C)[C@@H](O[C@H]2C[C@@](C)(OC)[C@@H](O[C@@H]3O[C@H](COC(=O)c4ccccc4)[C@@H](O)[C@H](O)[C@H]3OC(C)=O)[C@H](C)O2)[C@H](C)[C@@H](O[C@@H]2O[C@H](C)C[C@H](N(C)C)[C@H]2O)[C@](C)(OC)C[C@@H](C)C(=O)[C@H](C)[C@@H](O)[C@]1(C)O | 16 µg/mL (≈ 15.1 µM) | > 16 µg/mL | 16 µg/mL (≈ 15.1 µM) | 8 µg/mL (≈ 7.57 µM) | 16 µg/mL (≈ 15.1 µM) | 8 µg/mL (≈ 7.57 µM) | – | – | –
5 | CC[C@H]1OC(=O)[C@H](C)[C@@H](O[C@H]2C[C@@](C)(OC)[C@@H](O[C@H]3O[C@H](COC(C)=O)[C@@H](OC(=O)c4ccccc4)[C@H](OC(C)=O)[C@H]3OC(C)=O)[C@H](C)O2)[C@H](C)[C@@H](O[C@@H]2O[C@H](C)C[C@H](N(C)C)[C@H]2O)[C@](C)(OC)C[C@@H](C)C(=O)[C@H](C)[C@@H](O)[C@]1(C)O | 16 µg/mL (≈ 14 µM) | > 16 µg/mL | 16 µg/mL (≈ 14 µM) | 16 µg/mL (≈ 14 µM) | 16 µg/mL (≈ 14 µM) | 1 µg/mL (≈ 0.877 µM) | – | – | –
6 | CC[C@H]1OC(=O)[C@H](C)[C@@H](O[C@H]2C[C@@](C)(OC)[C@@H](O[C@@H]3O[C@H](CO)[C@@H](O[C@H]4O[C@@H](CO)[C@H](O)[C@@H](O)[C@@H]4O)[C@H](O)[C@H]3O)[C@H](C)O2)[C@H](C)[C@@H](O[C@@H]2O[C@H](C)C[C@H](N(C)C)[C@H]2O)[C@](C)(OC)C[C@@H](C)C(=O)[C@H](C)[C@@H](O)[C@]1(C)O | > 16 µg/mL | > 16 µg/mL | > 16 µg/mL | 16 µg/mL (≈ 14.9 µM) | > 16 µg/mL | > 16 µg/mL | – | – | –
7 | CC[C@H]1OC(=O)[C@H](C)[C@@H](O[C@H]2C[C@@](C)(OC)[C@@H](O[C@@H]3O[C@H](CO)[C@@H](O)[C@H](O)[C@H]3O)[C@H](C)O2)[C@H](C)[C@@H](O[C@@H]2O[C@H](C)C[C@H](N(C)C)[C@H]2O)[C@](C)(OC)C[C@@H](C)C(=O)[C@H](C)[C@H]2N(CCCCn3cnc4cccnc43)C(=O)O[C@]12C | > 16 µg/mL | > 16 µg/mL | > 16 µg/mL | 8 µg/mL (≈ 7.22 µM) | 16 µg/mL (≈ 14.4 µM) | 16 µg/mL (≈ 14.4 µM) | – | – | –
8 | CC[C@H]1OC(=O)[C@H](C)[C@@H](O[C@H]2C[C@@](C)(OC)[C@@H](O[C@@H]3O[C@@H]4COC(c5ccccc5)O[C@H]4[C@H](O)[C@H]3O)[C@H](C)O2)[C@H](C)[C@@H](O[C@@H]2O[C@H](C)C[C@H](N(C)C)[C@H]2O)[C@](C)(OC)C[C@@H](C)C(=O)[C@H](C)[C@H]2N(CCCCn3cnc4cccnc43)C(=O)O[C@]12C (stereo not given in full) | 4 µg/mL (≈ 3.34 µM) | > 16 µg/mL | 4 µg/mL (≈ 3.34 µM) | 2 µg/mL (≈ 1.67 µM) | 4 µg/mL (≈ 3.34 µM) | 0.5 µg/mL (≈ 0.418 µM) | 4 | 8 | 8
9 | CC[C@H]1OC(=O)[C@H](C)[C@@H](O[C@H]2C[C@@](C)(OC)[C@@H](O[C@@H]3O[C@H](CO)[C@@H](O)[C@H](O)[C@H]3O)[C@H](C)O2)[C@H](C)[C@@H](O[C@@H]2O[C@H](C)C[C@H](N(C)C)[C@H]2O)[C@](C)(OC)C[C@@H](C)C(=O)[C@H](C)[C@H]2N(CCCCn3cnc4ncccc43)C(=O)O[C@]12C | > 16 µg/mL | > 16 µg/mL | > 16 µg/mL | 8 µg/mL (≈ 7.22 µM) | 16 µg/mL (≈ 14.4 µM) | 8 µg/mL (≈ 7.22 µM) | – | – | –
10 | CC[C@H]1OC(=O)[C@H](C)[C@@H](O[C@H]2C[C@@](C)(OC)[C@@H](O[C@@H]3O[C@@H]4COC(c5ccccc5)O[C@H]4[C@H](O)[C@H]3O)[C@H](C)O2)[C@H](C)[C@@H](O[C@@H]2O[C@H](C)C[C@H](N(C)C)[C@H]2O)[C@](C)(OC)C[C@@H](C)C(=O)[C@H](C)[C@H]2N(CCCCn3cnc4ncccc43)C(=O)O[C@]12C (stereo not given in full) | 4 µg/mL (≈ 3.34 µM) | > 16 µg/mL | 4 µg/mL (≈ 3.34 µM) | 1 µg/mL (≈ 0.836 µM) | 8 µg/mL (≈ 6.69 µM) | 2 µg/mL (≈ 1.67 µM) | – | – | –
11 | CC[C@H]1OC(=O)[C@H](C)[C@@H](O[C@H]2C[C@@](C)(OC)[C@@H](O)[C@H](C)O2)[C@H](C)[C@@H](O[C@@H]2O[C@H](C)C[C@H](N(C)C)[C@H]2O)[C@](C)(OC)C[C@@H](C)C(=O)[C@H](C)[C@@H](O)[C@]1(C)O [CLARITHROMYCIN] | 0.25 µg/mL (≈ 0.334 µM) | > 32 µg/mL | 16 µg/mL (≈ 21.4 µM) | 16 µg/mL (≈ 21.4 µM) | 32 µg/mL (≈ 42.8 µM) | 2 µg/mL (≈ 2.67 µM) | – | – | –
12 | CC[C@H]1OC(=O)[C@H](C)C(=O)[C@H](C)[C@@H](O[C@@H]2O[C@H](C)C[C@H](N(C)C)[C@H]2O)[C@](C)(OC)C[C@@H](C)C(=O)[C@H](C)[C@H]2N(CCCCn3cnc(-c4cccnc4)c3)C(=O)O[C@]12C [TELITHROMYCIN] | 0.125 µg/mL (≈ 0.154 µM) | > 32 µg/mL | 0.125 µg/mL (≈ 0.154 µM) | 0.125 µg/mL (≈ 0.154 µM) | 0.25 µg/mL (≈ 0.308 µM) | 0.25 µg/mL (≈ 0.308 µM) | – | – | –
